Data published in the supplement of paper PMC10307832.

What was measured:
Assay in all cases: relative viability (nuclei count vs DMSO), 5 days (fraction); higher = more cells survive
[1] = compound: CC(=O)c1c(C)c2cnc(Nc3ccc(N4CCNCC4)cn3)nc2n(C2CCCC2)c1=O [Palbociclib] + Cc1nc(Nc2ncc(C(=O)Nc3c(C)cccc3Cl)s2)cc(N2CCN(CCO)CC2)n1 [Dasatinib] (partner 0.075 µM)
In short: (§1)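 Values are medians from duplicate plates. Each reflects relative viability, defined as the nuclei count of treated wells over that of vehicle wells. Lung cancer cell lines in 1536-well plates were pin-tool dosed one day after seeding with one drug alone or with a fixed anchor-drug dose plus five library-drug doses (not always all listed) in √10 steps, then fixed, stained and imaged at 4× after 5 days.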

[2] = compound: CC(=O)c1c(C)c2cnc(Nc3ccc(N4CCNCC4)cn3)nc2n(C2CCCC2)c1=O [Palbociclib] + CC(=O)Nc1cccc(-n2c(=O)n(C3CC3)c(=O)c3c(Nc4ccc(I)cc4F)n(C)c(=O)c(C)c32)c1 [Trametinib] (partner 0.02 µM)
In short: as §1

[3] = compound: CC(=O)c1c(C)c2cnc(Nc3ccc(N4CCNCC4)cn3)nc2n(C2CCCC2)c1=O [Palbociclib] + CC(C)C[C@H](NC(=O)[C@H](Cc1ccccc1)NC(=O)c1cnccn1)B(O)O [Bortezomib] (partner 0.002 µM)
In short: as §1

[4] = compound: CC(=O)c1c(C)c2cnc(Nc3ccc(N4CCNCC4)cn3)nc2n(C2CCCC2)c1=O [Palbociclib] + NC(=O)Nc1cc(-c2cccc(F)c2)sc1C(=O)N[C@H]1CCCNC1 [AZD7762] (partner 0.2 µM)
In short: as §1

Row | Cell Line | relative viability ([1]; first compound 0.01 µM) | relative viability ([1]; first compound 0.03162 µM) | relative viability ([1]; first compound 0.1 µM) | relative viability ([1]; first compound 0.3162 µM) | relative viability ([1]; first compound 1 µM) | relative viability ([2]; first compound 0.01 µM) | relative viability ([2]; first compound 0.03162 µM) | relative viability ([2]; first compound 0.1 µM) | relative viability ([2]; first compound 0.3162 µM) | relative viability ([2]; first compound 1 µM) | relative viability ([3]; first compound 0.01 µM) | relative viability ([3]; first compound 0.03162 µM) | relative viability ([3]; first compound 0.1 µM) | relative viability ([3]; first compound 0.3162 µM) | relative viability ([3]; first compound 1 µM) | relative viability ([4]; first compound 0.01 µM) | relative viability ([4]; first compound 0.03162 µM) | relative viability ([4]; first compound 0.1 µM) | relative viability ([4]; first compound 0.3162 µM) | relative viability ([4]; first compound 1 µM)
1 | NCI-H520 | 0.206 | 0.458 | 0.142 | 0.153 | 0.171 | 0.84 | 0.574 | 0.561 | 0.541 | 0.245 | 0.496 | 0.496 | 0.35 | 0.403 | 0.236 | – | – | – | – | –
2 | NCI-H522 | 0.896 | 0.658 | 0.809 | 0.922 | 0.914 | 0.818 | 0.576 | 0.776 | 0.797 | 0.853 | – | – | – | – | – | 1.01 | 0.453 | 0.934 | 0.843 | 0.814
3 | NCI-H661 | 0.901 | 0.793 | 0.476 | 0.533 | 0.435 | 0.536 | 0.5 | 0.423 | 0.477 | 0.336 | 0.874 | 0.584 | 0.588 | 0.649 | 0.521 | – | – | – | – | –
4 | NCI-H1299 | – | – | – | – | – | – | – | – | – | – | 1 | 0.871 | 0.925 | 0.873 | 0.72 | – | – | – | – | –
5 | NCI-H1395 | 0.399 | 0.382 | 0.345 | 0.325 | 0.333 | 1.08 | 0.884 | 0.816 | 0.854 | 0.731 | – | – | – | – | – | 0.428 | 0.406 | 0.406 | 0.453 | 0.407
6 | NCI-H1563 | 0.456 | 0.44 | 0.484 | 0.471 | 0.429 | – | – | – | – | – | 0.824 | 0.98 | 0.869 | 0.796 | 0.577 | – | – | – | – | –
7 | NCI-H1648 | – | – | – | – | – | 0.657 | 0.364 | 0.357 | 0.45 | 0.406 | – | – | – | – | – | 0.841 | 0.436 | 0.598 | 0.657 | 0.56
8 | NCI-H1650 | 0.29 | 0.287 | 0.275 | 0.275 | 0.208 | 0.623 | 0.575 | 0.39 | 0.58 | 0.411 | 0.229 | 0.227 | 0.176 | 0.187 | 0.215 | – | – | – | – | –
9 | NCI-H1703 | – | – | – | – | – | – | – | – | – | – | 0.266 | 0.23 | 0.197 | 0.226 | 0.188 | 0.12 | – | 0.109 | 0.0999 | 0.14
10 | NCI-H1793 | 0.409 | – | 0.359 | 0.342 | 0.221 | 0.438 | 0.431 | 0.44 | 0.322 | 0.281 | – | – | – | – | – | 0.518 | 0.393 | 0.549 | 0.528 | 0.277
11 | NCI-H1944 | 0.211 | 0.162 | 0.193 | 0.19 | 0.147 | 0.399 | 0.389 | 0.396 | 0.37 | 0.342 | – | – | – | – | – | 0.557 | 0.44 | 0.504 | 0.428 | 0.375
12 | NCI-H2009 | 0.272 | 0.212 | 0.187 | 0.223 | 0.159 | 0.307 | 0.296 | 0.194 | 0.223 | 0.141 | 0.987 | 0.867 | 0.68 | 0.679 | 0.219 | – | – | – | – | –
13 | NCI-H2023 | 0.536 | 0.488 | 0.351 | 0.453 | 0.246 | 0.655 | 0.408 | 0.477 | 0.464 | 0.326 | 0.96 | 0.279 | 0.705 | 0.654 | 0.391 | – | – | – | – | –
14 | NCI-H2170 | 0.488 | 0.515 | 0.549 | 0.534 | 0.521 | 0.968 | 0.838 | 0.889 | 0.882 | 0.721 | – | – | – | – | – | 0.925 | 0.736 | 0.875 | 0.773 | 0.514
15 | NCI-H2228 | 0.546 | 0.449 | 0.418 | 0.409 | 0.408 | 0.606 | 0.373 | 0.494 | 0.522 | 0.483 | 1.08 | 0.871 | 0.88 | 0.875 | 0.89 | – | – | – | – | –
16 | SK-LU-1 | 0.183 | 0.157 | 0.147 | 0.133 | 0.161 | 0.516 | 0.439 | 0.39 | 0.411 | 0.317 | 1.47 | – | 0.92 | 0.912 | 0.58 | – | – | – | – | –
17 | SK-MES-1 | 0.346 | 0.358 | 0.165 | 0.129 | 0.188 | 0.562 | 0.463 | 0.469 | 0.432 | 0.313 | – | – | – | – | – | – | – | – | – | –
18 | SW 900 | 0.641 | – | 0.543 | 0.479 | 0.46 | 0.828 | – | 1.12 | 0.616 | 0.509 | – | – | – | – | – | 0.67 | – | 0.641 | 0.644 | 0.46
19 | SW 1573 | 0.495 | 0.321 | 0.354 | 0.394 | 0.277 | 0.6 | 0.432 | 0.515 | 0.42 | 0.366 | 1.15 | 0.928 | 0.985 | 0.842 | 0.506 | – | – | – | – | –
20 | UMC-11 | 0.491 | 0.395 | 0.346 | 0.328 | 0.232 | 0.762 | 0.602 | 0.421 | 0.406 | 0.258 | 0.934 | 0.625 | 0.466 | 0.292 | 0.238 | – | – | – | – | –
